# Source: patent publication US10143720B2, “Modulation of hepatitis B virus cccDNA transcription” (DREXEL UNIVERSITY, priority 2012, dated 2018)
# “Also recorded” adds a separate entry of the source. Read-outs that look alike come from different tables or passages of the source. Where a SMILES comes first, the peptide text is derived from it. [ ]: non-standard residue; d: D form. β3hL = CC(C)C[C@H](N)CC(=O)O; Nva = CCC[C@H](N)C(=O)O
# Experiments:
# HDAC III = settings: cited from earlier work; for HDAC III inhibitor (printed in the HDAC-II inhibitor line): from cited references
# HDAC-II = settings: cited from earlier work; for HDAC-II inhibitor?: from cited references
# HDAC-I = settings: cited from earlier work; for HDAC-I inhibitor?: from cited references; for activity against class I HDACs: in words
# Toxicity on dstet5 cells = type: cell-based, chicken; settings: chicken; dstet5 cells; concentration that reduces 50% of cell viability
# HBV cccDNA [1] = assay: cccDNA-dependent DHBV pgRNA / cccDNA transcription in dstet5 cells; type: cell-based; settings: for Selectivity Index (SI): CC50 divided by EC50; for cccDNA transcription: Dstet5 cells
# Description: Most HBV producing cells lines produce HBV gene products from an HBV transgene integrated into the host chromosome, and thus cccDNA is not the major source of viral product. This makes screening for drugs that target cccDNA difficult. Cell lines were produced in which viral gene products are dependent upon cccDNA. It was established human Hep G2 and chicken hepatoma (LMH)-stable cell lines for this purpose with tetracycline (tet) regulated HBV/DHBV. […] Upon addition of tet back to media to block transgene transcription, and removal of PFA to allow the viral DNA synthesis in the pgRNA-containing capsid to proceed, there is a rapid decline of viral RNA (day 1 and 2), with an eventual increase to a higher level when cccDNA is made after day 3.
# With a system and conditions under which viral transcripts are produced in a cccDNA dependent manner (FIGS. 1, 2B), approximately 100 compounds were screened, including those from the inventors' in-house small compound library, those present in the inventors' Natural Products collection, and selected compounds including inhibitors of cellular epigenetic modification enzymes, including HDACs, HATs, Sirtuins, histone methyltransferases, histone demethylases and DNA methyltransferases.
# DHBV = assay: Duck hepadnavirus efficacy study; type: in vivo, Peking Ducks; settings: by 3 weeks of treatment, expected
# Description: Six-week-old Peking Ducks, chronically infected with DHBV type 16 (Alberta Strain), are used. At 6 weeks, viremia and liver mass in ducks tends to have stabilized. Ducks are given, by either i.m. or oral gavage (depending on Aim 4 PK/TK results), test compound (3 dose groups, with dosing amount and frequency to depend on PK results, but aiming to achieve stable serum levels of at least 10 times the tissue culture IC50). There are three dose groups with 5-6 animals per dose group. Control dose groups (6 animals each group) include placebo treated animals and animals treated with either barraclude (1 mg/kg) or lamivudine (40 mg/kg) per day. At least three animals from all dose groups contribute at least one pre treatment and one post treatment liver biopsy. Treatment is for 10 weeks, since this exceeds the time for lamivudine to suppress viremia to beneath detectable levels and the reported ½ life of cccDNA in the duck. Ducks are followed with weekly serum collections for an additional 4 weeks after withdrawal of drug. Serum will be collected weekly.
# Weekly serum is tested for standard “lab values” (hematology, albumin, AST, ALTs, The amount of DHBV viral DNA, sAg, sAb in the circulation is determined. Liver tissue derived from biopsies (some pre treatment and end of treatment from the same animals) is examined for DHBV DNA (cccDNA, replicative forms) and DHBV core (immunostained). […]
# WHV = assay: WHV-infected woodchuck study; type: in vivo; settings: by 10 weeks of treatment, expected
# Description: The study uses 10 groups, with 5 animals per group, with drug treatment for 10 weeks followed by 10 weeks off drug (to test durability of affect). Due to variability in the levels of viremia and antigenemia, animals are stratified to groups by WHV viremia and antigenemia levels as determined seven days prior to study start, so that the average levels of both viral markers are evenly distributed among all groups of animals. Animals with abnormally low WHVsAg levels are not used in this study. Compound is administered daily, by a route and frequency to be finalized after bioavailability studies in rodents. The first day of dosing on the study is Study Day 1. Study Day 1 dose levels are calculated on a pretest body weight, and body weights are taken weekly for dose administration. Dosing range is as for the mouse study over four doses, with Group 10 treated with Barraclude as a reference compound (Tennant).
# The primary endpoint is a dose dependent reduction in viremia and antigenemia on and off drug achieving durable off drug reductions.
# The benchmark of positive activity is LFMAU treated animals.
# [2] = tested on: DHBV transgene integrated in host cellular chromosome; assay: DHBV pgRNA transcription from transgene integrated in host cellular chromosome (FIG. 4); type: cell-based
# HBV cccDNA [3] = assay: HBV cccDNA transcription in HepG2 cells; type: cell-based, HBV in human HepG2 cells
# HDAC = settings: relative to Apicidin; cited from earlier work
# cccDNA = settings: positive drug control; from our screen, Guo 2012; cited from earlier work
# [4] = cited from earlier work
# [5] = cited from earlier work; remark: listed apart in the source
# dstet5 cells = assay: Toxicity on dstet5 cells; type: cell-based, chicken
# [6] = in Gallus gallus, read-out: HBV cccDNA (EC50, uM)
smiles,measurement,setting,value
"O=C(CCCCCCC(=O)NO)NO [Suberoyl bis hydroxamic acid (SBHA), Suberoyl bis hydroxamic acid]",HDAC III inhibitor (printed in the HDAC-II inhibitor line),HDAC III,HDAC III^11
same,HDAC-II inhibitor?,HDAC-II,YES &
same,HDAC-I inhibitor?,HDAC-I,"YES^4,6,7,10"
same,CC50,Toxicity on dstet5 cells,> 40 µM
same,Selectivity Index (SI),HBV cccDNA [1],>16
same,EC50,HBV cccDNA [1]; [6],2.5 µM
Cc1cn([C@H]2O[C@@H](CO)[C@H](O)[C@H]2F)c(=O)[nH]c1=O [LFMAU],HBV viremia and antigenemia,DHBV,uniformly lost HBV viremia and even antigenemia
same,HBV viremia and antigenemia,WHV,uniformly lost HBV viremia and even antigenemia
CC(/C=C/C(=O)NO)=C\[C@@H](C)C(=O)c1ccc(N(C)C)cc1 [Trichostatin A],DHBV pgRNA transcription from transgene integrated in host cellular chromosome,[2],dose-dependently stimulate
same,effect on class III HDACs (sirtuins),HDAC III; in words,not affected
same,HDAC-II inhibitor?,HDAC-II,"YES^4,5,6,9"
same,activity against class II HDACs,HDAC-II; in words,inhibited
same,HBV cccDNA transcription,HBV cccDNA [3],repress
same,cccDNA levels,HBV cccDNA [3],reduced
same,HDAC-I inhibitor?,HDAC-I,"YES^5,6,9"
same,activity against class I HDACs,HDAC-I,inhibited
same,CC50,Toxicity on dstet5 cells,> 20 µM
same,Selectivity Index (SI),HBV cccDNA [1],>40
same,cccDNA transcription,HBV cccDNA [1]; FIG. 3,repress
same,EC50,HBV cccDNA [1]; [6],0.48 µM
CCC(=O)CCCCC[C@@H]1NC(=O)Cn2cc(nn2)[C@H](C(C)CC)NC(=O)[C@H](Cc2c[nH]c3ccccc23)NC1=O (stereo partly shown) [analog 1],anti HDAC potency,HDAC,without loss of anti HDAC potency
O=C(CN(c1cc(C(F)(F)F)ccc1Cl)S(=O)(=O)c1ccccc1)NCc1ccncc1 [CCC-0975],cccDNA formation,cccDNA,inhibits
CCC[C@@H]1NC(=O)[C@H](C)NC(=O)C[C@H](CC(C)C)NC(=O)[C@H](Cc2c[nH]c3ccccc23)NC1=O [analog 2] (cyclo(A[Nva]W[β3hL])),anti HDAC potency,HDAC,without loss of anti HDAC potency
CN(C)c1ccc(C(=O)NCCCCCCC(=O)NO)cc1 [4-(dimethylamino)-N-[7-(hydroxyamino)-7-oxoheptyl] benzamide],HDAC III inhibitor (printed in the HDAC-II inhibitor line),HDAC III,"HDAC III^7,11"
same,HDAC-II inhibitor?,HDAC-II,YES &
same,HDAC-I inhibitor?,HDAC-I,"YES^4,7"
same,CC50,Toxicity on dstet5 cells,> 100 µM
same,Selectivity Index (SI),HBV cccDNA [1],>16
same,EC50,HBV cccDNA [1]; [6],6.25 µM
"CCC(=O)CCCCC[C@@H]1NC(=O)[C@H]2CCCCN2C(=O)[C@H]([C@@H](C)CC)NC(=O)[C@H](Cc2cn(OC)c3ccccc23)NC1=O [Apicidin, cyclo(N—O-methyl-L-tryptophanyl-L-isoleucinyl-D-pipecolinyl-L-2-amino-8-oxodecanoyl)]",DHBV pgRNA transcription from transgene integrated in host cellular chromosome,[2],dose-dependently stimulate
same,HBV cccDNA transcription,HBV cccDNA [3],repress
same,cccDNA levels,HBV cccDNA [3],reduced
same,HDAC-I inhibitor?,HDAC-I,"YES^4,5"
same,activity against class I HDACs,HDAC-I,nanomolar activity; also recorded: efficiently inhibits
same,aqueous solubility,[4],very poor
same,half life in vivo,[5],very poor
same,oral bioavailability,"[5]; in vivo, po",very poor
same,toxicity,dstet5 cells; at up to 20 uM for five days,no toxicity
same,CC50,"dstet5 cells; dstet5 cells, concentration that reduces 50% of cell viability",> 20 µM
same,"activity against the DHBV, in culture",HBV cccDNA [1],highly active
same,cccDNA transcription,HBV cccDNA [1]; FIG. 3,repress
same,EC50,"HBV cccDNA [1]; FIG. 3, read-out: inhibition of cccDNA, EC50",~0.18 µM
same,EC50,"HBV cccDNA [1]; dstet5 system, concentration that reduces 50% of the HBV specific signal (RNA and/or HBeAg), read-out: HBV cccDNA (EC50)",0.183 µM
